US9399639B2, “Substituted azaindole compounds, salts, pharmaceutical compositions thereof and methods of use” (Calitor Sciences, LLC, priority 2012, dated 2016)

Experiments:
[1] = Compound stability in rat liver microsomes; format: in vitro ADME; settings: 1 μM
Method: (§1) Human or rat liver microsomes incubations were conducted in duplicate in polypropylene tubes. […] Compounds were dissolved in DMSO and diluted with PBS such that the final concentration of DMSO was 0.05%. The enzymatic reactions were commenced with the addition of protein after a 3 min preincubation and incubated in a water bath open to the air at 37° C. Reactions were terminated at various time points (0, 5, 10, 15, 30, 60 min) by adding equal volume of ice-cold acetonitrile. The samples were stored at −80° C. until LC/MS/MS assays.
(§2) The concentrations of compounds in the incubation mixtures of human (or rat) liver microsomes were determined by a LC/MS/MS method. The ranges of the linearity in the concentration range were determined for each tested compounds.
(§3) A parallel incubation was performed using denatured microsomes as the negative control, and reactions were terminated at various time points (for example, 0, 15, 60 min) after incubation at 37° C.
(§4) Dextromethorphan (70 μM) was selected as the positive control, and reactions were terminated at various time points (0, 5, 10, 15, 30, 60 min) after incubation at 37° C. Both positive and negative control samples were included in each assay to ensure the integrity of the microsomal incubation system.
(§5) Alternatively, the stability of some of the compounds disclosed herein in human (or rat) liver microsomes were also conducted in the following protocol. The incubations were conducted in duplicate in polypropylene tubes. […] Compounds were dissolved in DMSO and diluted with K-buffer such that the final concentration of DMSO was 0.2%. The enzymatic reactions were commenced with the addition of 15 μL of NADPH (final concentration: 2 mM) after 10 min preincubation and incubated in a 37° C. incubator. Reactions were terminated at various time points (0, 15, 30, 60 min) by adding 135 μL acetonitrile (contain IS). Protein is removed by centrifugation with 4,000 rpm, 10 min.
(§6) In the above protocol, ketanserin (1 μM) was selected as the positive control, and reactions were terminated at various time points (0, 15, 30, 60 min) after incubation at 37° C. The positive control sample was included in each assay to ensure the integrity of the microsomal incubation system.
(§7) The concentrations of compounds in liver microsome incubations were plotted as a percentage of the relevant zero time point control for each reaction. The in vivo CLint were extrapolated (ref: Naritomi et al., Prediction of human hepatic clearance from in vivo animal experiments and in vitro metabolic studies with liver microsomes from animals and humans, Drug Metab. Dispos., 2001, 29: 1316-1324.) […]

Colo-205 Tumor Xenograft = experiment: Colo-205 tumor xenograft model, tumor growth inhibition; format: in vivo, athymic nude mice; settings: Colo-205 xenograft, p.o., 15 days
Method: The efficacy of compounds disclosed herein is evaluated in a standard murine model of tumorigenesis. Human tumor cells (i.e., Colo-205 Tumor Xenograft models) are expended in culture, harvested, and injected subcutaneously onto the rear flank of 6-7 week old female athymic nude mice (BALB/cA nu/nu, Shanghai SLAC Laboratory Animal, Co.) (n=10 for vehicle group, n=8 for each dosing group). When tumor reaches a volume of 100-250 mm^3, animals are randomly divided into vehicle control (for example, 5% PEG400+5% Solutol HS 15 in water or 5% EtOH+5% CremophorEL+1% HCl (11.7%), pH 2.2 in water) and compound groups. Subsequent administration of compound by oral gavage (for example, 6-60 mpk/dose, dissolved in 5% PEG400+5% Solutol HS 15 in water or 5% EtOH+5% CremophorEL+1% HCl (11.7%), pH 2.2 in water) begins anywhere from day 0 to day 15 post tumor cell challenge and generally continues with once a day for the duration of the experiment.
Progression of tumor growth is assessed by tumor volumes and recorded as a function of time. The long (L) and short (W) axes of the subcutaneous tumors are measured with calipers twice weekly, and the tumor volume (TV) calculated as (L×W^2)/2). TGI is calculated from the difference between the median tumor volumes of vehicle-treated and drug-treated mice, expressed as a percentage of the median tumor volume of the vehicle-treated control group, by the following relation:
Initial statistical analysis is done by repeated measures analysis of variance (RMANOVA), Followed by Scheffe post-hoc testing for multiple comparisons. Vehicle alone (2% HPMC+1% Tween-80, or the like) is the negative control.
The compouds described herein were also administrated orally (p.o.) once a day (QD) or (BID) for 15 days in Colo-205 xenograft animal model. At doses of 20 mg/kg, the compouds produced statistically significant inhibition of growth of certain tumors grown subcutaneously in athymic nude mice.

[2] = Compound stability in human liver microsomes; format: in vitro ADME; settings: 1 μM
Method: as §1, §2, §3, §4, §5, §6, §7

Structure (SMILES) | Rat T1/2 [1] | TGI % (on the last day of dosing) (Colo-205 Tumor Xenograft; 6 mg/kg/qd) [%] | TGI % (on the last day of dosing) (Colo-205 Tumor Xenograft; 20 mg/kg/bid) [%] | TGI % (on the last day of dosing) (Colo-205 Tumor Xenograft; 20 mg/kg/qd) [%] | TGI % (on the last day of dosing) (Colo-205 Tumor Xenograft; 60 mg/kg/qd) [%] | Human T1/2 [2]
CCCS(=O)(=O)Nc1ccc(F)c(C(=O)c2cn(COP(=O)([O-])[O-])c3ncc(-c4ccc(Cl)cc4)cc23)c1F.[Na+].[Na+] [Ex. 25, sodium (5-(4-chlorophenyl)-3-(2,6-difluoro-3-(propylsulfonamido)benzoyl)-1H-pyrrolo[2,3-b]pyridin-1-yl)methyl phosphate] | ∞ | 41 | 95 | 59 | 108 | ∞
CCCS(=O)(=O)Nc1ccc(F)c(C(=O)c2cn(C(C)OP(=O)([O-])[O-])c3ncc(-c4ccc(Cl)cc4)cc23)c1F.[Na+].[Na+] (stereo not drawn) [Ex. 32, sodium 1-(5-(4-chlorophenyl)-3-(2,6-difluoro-3-(propylsulfonamido)benzoyl)-1H-pyrrolo[2,3-b]pyridin-1-yl)ethyl phosphate] | ∞ | 29 | 102 | 68 | 110 | ∞
